This is an account of results in US9403813B2, “Azetidine amide derivatives as orexin receptor antagonists” (ACTELION PHARMACEUTICALS LTD, priority 2013, dated 2016).

Data set [1] has as its system rat. The note with it: cited from earlier work.
In data set [2] the test system is rat. To be noted: cited from earlier work. The source holds these as a separate data set.
Data set [3] concerns rats. The note with it: fasted hungry rats exposed to food odors; cited from earlier work.
Data set [4] concerns rats. The note with it: cited from earlier work.
Data set [5] has as its system amyloid precursor protein transgenic mice. To be noted: after acute sleep restriction, APP transgenic mice; cited from earlier work.
The test system of data set [6] is rat. To be noted: cited from earlier work. This is another data set of the same source.
The subject of a further data set is mouse. To be noted: administered chronically; cited from earlier work.
Data set [7] deals with rats. To be noted: rats treated with the compound; cited from earlier work.
The subject of another data set is humans. The note with it: primary insomnia; cited from earlier work.
For data set [8], the system named is rodents. To be noted: cited from earlier work.
Data set [9] relates to rodents. To be noted: cited from earlier work. This is another data set of the same source.
The next data set deals with human orexin-2 receptor (Homo sapiens (Human), UniProt O43614). The data set is described as follows: Intracellular calcium measurements (FLIPR), antagonism of orexin-A response. To be noted: CHO cells expressing human orexin-2 receptor, 3 nM orexin-A, geometric mean if determined several times, read-out: IC50 OX2. The data set is classed as cell-based. The procedure, abridged:
(§1)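 CHO cells expressing human OX1 or OX2 receptor, loaded with fluo-4 AM plus probenecid, preincubated with antagonist 120 min before 3 nM orexin-A challenge. FLIPR calcium peak heights compared with agonist-plus-vehicle response. IC50 possibly normalized to on-plate reference; geometric mean of repeat determinations.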

Another data set concerns the target human orexin-1 receptor (Homo sapiens (Human), UniProt O43613). Described as above. The note with it: CHO cells expressing human orexin-1 receptor, 3 nM orexin-A, geometric mean if determined several times, read-out: IC50 OX1. It is filed as cell-based. The procedure, abridged:
as §1

human orexin-1 receptor, sequence (O43613 whole entry): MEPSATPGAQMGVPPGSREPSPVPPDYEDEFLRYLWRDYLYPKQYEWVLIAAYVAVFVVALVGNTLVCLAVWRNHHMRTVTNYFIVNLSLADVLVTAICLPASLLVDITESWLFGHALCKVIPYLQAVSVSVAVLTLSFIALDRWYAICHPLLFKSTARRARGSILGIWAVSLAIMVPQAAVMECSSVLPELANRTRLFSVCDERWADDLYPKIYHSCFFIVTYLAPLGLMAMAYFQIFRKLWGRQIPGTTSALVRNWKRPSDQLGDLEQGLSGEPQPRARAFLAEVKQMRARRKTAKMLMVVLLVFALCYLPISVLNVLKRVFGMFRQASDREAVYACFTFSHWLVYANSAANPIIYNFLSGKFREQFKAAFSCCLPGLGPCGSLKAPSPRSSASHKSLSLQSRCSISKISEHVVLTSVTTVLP
human orexin-2 receptor, sequence (O43614 whole entry): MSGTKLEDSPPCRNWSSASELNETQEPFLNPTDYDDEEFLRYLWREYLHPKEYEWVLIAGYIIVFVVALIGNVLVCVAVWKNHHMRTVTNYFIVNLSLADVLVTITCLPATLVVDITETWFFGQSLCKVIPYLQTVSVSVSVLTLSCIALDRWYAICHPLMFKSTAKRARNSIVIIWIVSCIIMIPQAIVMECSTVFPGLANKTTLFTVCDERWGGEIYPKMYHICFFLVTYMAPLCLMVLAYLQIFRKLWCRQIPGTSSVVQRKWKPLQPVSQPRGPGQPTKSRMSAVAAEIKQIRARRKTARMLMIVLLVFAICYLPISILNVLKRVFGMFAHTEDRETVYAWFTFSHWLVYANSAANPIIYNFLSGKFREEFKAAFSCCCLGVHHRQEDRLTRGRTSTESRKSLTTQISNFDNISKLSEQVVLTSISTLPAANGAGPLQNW

With `CNC(=O)[C@@H](c1ccccc1)N1CCc2cc(OC)c(OC)cc2[C@@H]1CCc1ccc(C(F)(F)F)cc1` [(2R)-2-{(1S)-6,7-dimethoxy-1-[2-(4-trifluoromethyl-phenyl)-ethyl]-3,4-dihydro-1H-isoquinolin-2-yl}-N-methyl-2-phenyl-acetamide], in the data set with rat [1], the “activity in fear-potentiated startle paradigm” value is “active”. In addition, the “activity in nicotine self-administration” value in the data set on rat [2] is “displayed pharmacological activity”. The “natural activation induced by orexin A” value in the data set on rats [3] is recorded as “attenuate the natural activation induced by orexin A”. The “cardiovascular responses to conditioned fear and novelty exposure” value in the data set with rats [4] was “attenuated cardiovascular responses”. In data set [5], the “brain levels of amyloid-beta and plaque deposition” value is on record as “decreased brain levels of amyloid-beta (Aβ) as well as Aβ plaque deposition”. Besides, in the data set with rat [6], the “alertness (active wake and locomotion)” value is recorded as “decrease alertness”; the “time spent in REM and NREM sleep” value is “dose-dependently increase the time spent in both REM and NREM sleep”. Moreover, the antidepressant-like activity entry in the data set with mouse is “induce antidepressant-like activity”. In the data set with rats [7], the learning and memory entry is “intact declarative and non-declarative learning and memory”. In the data set with humans, the clinical efficacy result is given as “showed clinical efficacy”.
Regarding `Cn1c(SCC(=O)N2CCC[C@H]2C(=O)Nc2ccccc2-c2ccccc2)nc2ccccc21` [N-Biphenyl-2-yl-1-{[(1-methyl-1H-benzimidazol-2-yl)sulfanyl]acetyl}-L-prolinamide], the “nicotine-reinstatement for a conditioned reinforcer” value in the data set on rodents [8] was “inhibited nicotine-reinstatement for a conditioned reinforcer”. In the data set on rodents [9], the “behavioral and molecular changes induced by repeated amphetamine” value was “reduced behavioral (locomotor sensitization) and molecular (transcriptional responses) changes”.
Take `CCOc1ncccc1-c1noc([C@@H]2CCN2C(=O)c2cc(OC)c(F)cc2-n2nccn2)n1` [Example 33, {(S)-2-[3-(2-Ethoxy-pyridin-3-yl)-[1,2,4]oxadiazol-5-yl]-azetidin-1-yl}-(4-fluoro-5-methoxy-2-[1,2,3]triazol-2-yl-phenyl)-methanone]: the figures for the 50% inhibitory concentration (IC50) at human orexin-2 receptor and on human orexin-1 receptor were 27 nM and 1500 nM, respectively.
For the compound `Cc1cccc(-c2oc(C)nc2C(=O)N2CC[C@H]2c2nc(-c3cccc(Cl)c3C)no2)c1` [Example 71, {(S)-2-[3-(3-Chloro-2-methyl-phenyl)-[1,2,4]oxadiazol-5-yl]-azetidin-1-yl}-(2-methyl-5-m-tolyl-oxazol-4-yl)-methanone], the results for the IC50 at human orexin-2 receptor and at human orexin-1 receptor were 555 nM and 693 nM, respectively.
Consider `O=C(c1ncsc1-c1ccccc1)N1CC[C@H]1c1nc(-c2ccccc2OC(F)(F)F)no1` [Example 42, (5-Phenyl-thiazol-4-yl)-{(S)-2-[3-(2-trifluoromethoxy-phenyl)-[1,2,4]oxadiazol-5-yl]-azetidin-1-yl}-methanone], for which the figures for the concentration for half-maximal inhibition (IC50) on human orexin-2 receptor and at human orexin-1 receptor were 266 nM and 400 nM, respectively.
